Reference: ChEMBL document CHEMBL3044970, “Isoniazid: the magic molecule” (2012)
≈ marks a conversion by molar mass, not a printed value.

Experiments:
Assay type in all cases: functional
[1] = tested on: Mycobacterium tuberculosis; experiment: Antimicrobial activity against Mycobacterium tuberculosis H37Rv infected macrophage model
[2] = tested on: Mycobacterium tuberculosis; experiment: Antimicrobial activity against Mycobacterium tuberculosis H37Rv
[3] = tested on: Mycobacterium tuberculosis; experiment: Ratio of INH MIC to compound MIC for Mycobacterium tuberculosis H37Rv
[4] = tested on: Mycobacterium tuberculosis; experiment: Antimicrobial activity against Mycobacterium tuberculosis
[5] = tested on: Mycobacterium tuberculosis; experiment: Antimicrobial activity against Mycobacterium tuberculosis H4
[6] = tested on: Mycobacterium tuberculosis; experiment: Antimicrobial activity against Mycobacterium tuberculosis H37Rv by agar dilution method relative to isonicotinoyl hydrazide

Compound | MIC [2] | MIC [4] [µg/mL] | MIC [5] [µg/mL] | also measured
O=C1NC(NNC(=O)c2ccncc2)=N/C1=C\c1cccc(Cl)c1 | – | – | – | MIC [1]: 0.8 µg/mL (≈ 2.34 µM)
COc1ccc(C2SCC(=O)N2NC(=O)c2ccncc2)cc1O (centres undefined) | 0.31 µg/mL | – | – | –
COc1ccc(C2C(Cl)C(=O)N2NC(=O)c2ccncc2)cc1O (centres undefined) | 0.31 µg/mL | – | – | –
COc1cc(C2=NN(C(=O)c3ccncc3)C(c3ccc(O)cc3)C2)ccc1OCC(=O)O (centres undefined) | 0.12 µM | – | – | Ratio [3]: 5.6
O=C(c1ccncc1)N1N=C(c2ccccn2)CC1c1cccc(Cl)c1 (centres undefined) | – | 8 (≈ 22 µM) | 8 (≈ 22 µM) | –
O=C(c1ccncc1)N1N=C(c2ccccn2)CC1c1ccc(Cl)cc1 (centres undefined) | – | 8 (≈ 22 µM) | 8 (≈ 22 µM) | –
Cc1ccccc1C1CC(c2ccccn2)=NN1C(=O)c1ccncc1 (centres undefined) | – | 8 (≈ 23.4 µM) | 8 (≈ 23.4 µM) | –
O=C(c1ccncc1)N1N=C(c2ccccn2)CC1c1ccccc1 (centres undefined) | – | 8 (≈ 24.4 µM) | 8 (≈ 24.4 µM) | –
O=C(c1ccncc1)N1N=C(c2ccccn2)CC1c1ccccc1Cl (centres undefined) | – | 8 (≈ 22 µM) | 8 (≈ 22 µM) | –
O=C(NNC(=S)Nc1ccccc1C(F)(F)F)c1ccncc1 | 0.58 µM | – | – | Ratio [6]: 1.24
NNC(=O)c1ccncc1 [ISONIAZID] | – | 0.05 (≈ 0.365 µM) | – | –
CO[C@H]1/C=C/O[C@@]2(C)Oc3c(C)c(O)c4c(O)c(c(/C=N/N5CCN(C)CC5)c(O)c4c3C2=O)NC(=O)/C(C)=C\C=C\[C@H](C)[C@H](O)[C@@H](C)[C@@H](O)[C@@H](C)[C@H](OC(C)=O)[C@@H]1C [RIFAMPIN] | 0.2 µg/mL | – | – | –
